We go through 55 compounds from US12116358B2, “Substituted indoles and methods of use thereof” (EPIZYME, INC., priority 2018, dated 2024).

A value given as a limit tells only on which side of the number the result lay.

The first experiment addresses T1, SETD2(1434-1711) (Homo sapiens, UniProt Q9BYW2).
T1 construct: SETD2 (1434-1711) Assay; catalogue N/A
T1 sequence (Q9BYW2 1434-1711): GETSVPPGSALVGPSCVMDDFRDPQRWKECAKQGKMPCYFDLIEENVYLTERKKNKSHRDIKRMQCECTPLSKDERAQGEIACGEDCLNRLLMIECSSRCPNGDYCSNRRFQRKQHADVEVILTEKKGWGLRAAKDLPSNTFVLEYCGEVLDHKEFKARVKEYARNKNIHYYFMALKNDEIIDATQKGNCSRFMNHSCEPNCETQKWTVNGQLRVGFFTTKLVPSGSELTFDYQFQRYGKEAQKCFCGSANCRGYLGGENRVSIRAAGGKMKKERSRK
Briefly: SETD2 (1434-1711) assay. The experiment is classed as biochemical. As to conditions: read-out: SETD2 (1434-1711).
Consider `Cc1cccc2cc(C(=O)NC(CCN(C)C)c3cccnc3)[nH]c12` (stereo not shown) [compound 725], for which the IC50 came out at 123 µM.

Consider `Cc1csc(C(C)NC(=O)c2cc3cccc(C)c3[nH]2)n1` (stereo not shown) [compound 688], for which the IC50 amounted to 52.1 µM.

Take `Cc1cccc2cc(C(=O)NCCc3ccccc3-c3ccccc3)[nH]c12` [compound 818]: the IC50 was more than 200 µM.

For `Cc1cccc2cc(C(=O)N3CCC4(CCc5ccccc54)C3)[nH]c12` (stereo not shown) [compound 820], the IC50 was more than 200 µM.

`Cc1cccc2cc(C(=O)NC(C3CC3)C(F)(F)F)[nH]c12` (stereo not shown) [compound 769]: the IC50 is more than 200 µM.

As for `Cc1cccc2cc(C(=O)NCCc3ccccc3-c3ccccc3CN)[nH]c12` [compound 635], the IC50 came to 16.5 µM.

Take `Cc1cccc2cc(C(=O)NC(c3cccnc3)C3CC3)[nH]c12` (stereo not shown) [compound 689]: the IC50 is 53.3 µM.

Take `Cc1cccc2cc(C(=O)NC3CCNCC3)[nH]c12` [compound 715]: the IC50 came to 98.9 µM.

As to `Cc1cccc2cc(C(=O)N3CCC(C(N)=O)CC3)[nH]c12` [compound 771], the IC50 is more than 200 µM.

Take `Cc1cccc2cc(C(=O)N3CCN(C(N)=O)CC3)[nH]c12` [compound 787]: the IC50 is more than 200 µM.

Consider `Cc1cccc2cc(C(=O)N[C@H](CO)C(C)C)[nH]c12` [compound 763], for which the IC50 was more than 200 µM.

On to `Cc1cccc2cc(C(=O)Nc3ccccc3C3CCC(=O)N3)[nH]c12` (stereo not shown) [compound 679], for which the IC50 was determined as 43.1 µM.

For the compound `Cc1ccc(C)c2[nH]c(C(=O)N[C@H]3CC[C@H](N)CC3)cc12` [compound 730], the IC50 is more than 130 µM.

In the case of `CCN1CCN([C@@H]2CCC[C@@H](NC(=O)c3cc4c(F)ccc(C)c4[nH]3)C2)CC1=O` [compound 836], the IC50 came out at 4 µM.

In the case of `Cc1cccc2cc(C(=O)N[C@H](CO)Cc3ccccc3)[nH]c12` [compound 765], the IC50 is more than 200 µM.

For the compound `Cc1ccccc1C(NC(=O)c1cc2cccc(C)c2[nH]1)C1CC1` (stereo not shown) [compound 801], the IC50 is more than 200 µM.

Regarding `Cc1cccc2cc(C(=O)NCc3ncnn3C)[nH]c12` [compound 768], the IC50 is more than 200 µM.

For `Cc1cccc2cc(C(=O)N3CCn4ncnc4C3)[nH]c12` [compound 812], the IC50 was more than 200 µM.

Turning to `Cc1cccc2cc(C(=O)NC3Cc4ccccc4NC3=O)[nH]c12` (stereo not shown) [compound 699], the IC50 is 66.7 µM.

On to `Cc1cccc2cc(C(=O)Nc3cc(CN4CCOCC4)ccn3)[nH]c12` [compound 724], for which the IC50 is 117 µM.

`COC(=O)CC(NC(=O)c1cc2cccc(C)c2[nH]1)c1cccs1` (stereo not shown) [compound 650]: the IC50 was more than 23 µM.

As for `Cc1cccc2cc(C(=O)NC3CCN(S(=O)(=O)CCCN)CC3)[nH]c12` [compound 663], the IC50 stood at 31.5 µM.

For `Cc1cccc2cc(C(=O)N[C@@H](CO)Cc3ccccc3)[nH]c12` [compound 692], the IC50 came out at 56.9 µM.

With `COC(=O)C[C@H](NC(=O)c1cc2cccc(C)c2[nH]1)c1ccc(Cl)cc1` [compound 683], the IC50 amounted to 48.2 µM.

For the compound `COC(=O)C[C@H](NC(=O)c1cc2cccc(C)c2[nH]1)C(=O)OC` [compound 708], the IC50 came out at 74 µM.

With `Cc1cccc2cc(C(=O)NC(C)c3cccc(C(F)(F)F)c3)[nH]c12` (stereo not shown) [compound 790], the IC50 was more than 200 µM.

`COC(=O)CC(NC(=O)c1cc2cccc(C)c2[nH]1)c1cccc(Br)c1` (stereo not shown) [compound 669]: the IC50 is 35.2 µM.

As to `Cc1ccc(F)c2cc(C(=O)N[C@@H]3CCCC(N4CCC(=O)N(C)CC4)C3)[nH]c12` (stereo partly shown) [compound 832], the IC50 is 0.6 µM.

Take `Cc1cccc2cc(C(=O)NC3CCN(Cc4ccccc4)CC3)[nH]c12` [compound 752]: the IC50 was more than 200 µM.

As to `Cc1cccc2cc(C(=O)NCc3cccc(N4CCCCC4)c3)[nH]c12` [compound 750], the IC50 was more than 200 µM.

Turning to `Cc1cccc2cc(C(=O)NC3CCC(=O)Nc4ccccc43)[nH]c12` (stereo not shown) [compound 704], the IC50 is 70.9 µM.

As to `Cc1cccc2cc(C(=O)NC3CCC(c4ccccc4)NC(=O)C3)[nH]c12` (stereo not shown) [compound 816], the IC50 was more than 200 µM.

As to `COC(=O)CC(NC(=O)c1cc2cccc(C)c2[nH]1)c1cccc(F)c1` (stereo not shown) [compound 707], the IC50 was 72 µM.

Take `Cc1cccc2cc(C(=O)N[C@H]3CC[C@H](NS(=O)(=O)CCN)CC3)[nH]c12` [compound 661]: the IC50 turned out to be 28.7 µM.

Regarding `Cc1cccc2cc(C(=O)NC3CCCN(S(=O)(=O)CCCN)C3)[nH]c12` (stereo not shown) [compound 646], the IC50 was determined as 20.3 µM.

Take `Cc1cccc2cc(C(=O)NC3CCc4ccccc43)[nH]c12` (stereo not shown) [compound 748]: the IC50 was more than 200 µM.

Another experiment relates to H3K36me3 in A549 cells. Briefly: In-Cell Western (ICW) assay of SETD2 inhibitors (A549 assay). The experiment is classed as cell-based, human. As to conditions: A549 cells; read-out: SETD2 A549. As for the experimental part: In-Cell Western (ICW) Assay of SETD2 Inhibitors (A549 Assay)
Representative Compounds of the Disclosure were tested in the A549 assay according the following protocol.
1. Reagents and Consumables:
Prepare plates with compounds. Seed A549 cells to the plates with compounds, 4,000 cells/well, 50 μl/well. Put the plates at room temperature on a non-vibrating surface for 20 minutes before placing in the incubator. Incubate the plate at 37° C. incubator with CO2 for 3 days. Remove plate from incubator and bring to room temperature. Blot media out of the plate and add 50 μL of ice cold 100% methanol. Incubate 30 minutes at room temperature. Remove methanol by aspiration. Wash 3× with PBST. Add 50 μL of Blocking Buffer+0.1% Tween 20. Incubate 1 hour. Remove Blocking Buffer, wash 3× with PBST. Add 20 μL of H3K36me3 (1:1000 dilution). […] Incubate overnight at 4° C. Wash plate 5× with PBS-T. Add 20 μL of DRAQ5 (1:1000) and IRDye 800CW Goat anti-Rabbit IgG (1:500). Incubate for 1 hour in the dark. Wash plate 5× with PBS-T. Wash plate 3× with water. Dry by blotting on paper towel, then centrifuge plate upside down on a thin layer of paper towels for 1 minute at 1000 rpm to remove excess reagent. Leave plate uncovered for ˜10 minutes out of direct light before reading. Read on Licor instrument.
4. Licor Instrument Settings:
Preset: Plate; Resolution: 84 μm; Quality: low; Focus offset: 4.0; 700 channel intensity: 2; and 800 channel intensity: 3.
Consider `Cc1ccc(F)c2cc(C(=O)N[C@@H]3CCC[C@@H](N4CCN(S(C)(=O)=O)CC4)C3)[nH]c12` [compound 851], for which the IC50 was more than 2 µM.

With `Cc1ccc(F)c2cc(C(=O)NC3CCCC(N4CCN(C)C(=O)C4)C3)[nH]c12` (stereo not shown) [compound 382], the IC50 is more than 2 µM.

`CC(=O)N1CCC2C1CCN2C1CCCC(NC(=O)c2cc3c(F)ccc(C)c3[nH]2)C1` (stereo not shown) [compound 1185]: the IC50 is 0.07 µM.

For `Cc1ccc(F)c2cc(C(=O)NC3CCCC(N4CCN5C(=O)CCC5C4)C3)[nH]c12` (stereo not shown) [compound 863], the IC50 was 0.02 µM.

Consider `CC(=O)N1CCC2CN(C3CCCC(NC(=O)c4cc5c(F)ccc(C)c5[nH]4)C3)CC21` (stereo not shown) [compound 1183], for which the IC50 was more than 2 µM.

As for `Cc1ccc(F)c2cc(C(=O)N[C@@H]3CCC[C@@H](N4CCN5C(=O)CCC5C4)C3)[nH]c12` (stereo partly shown) [compound 864], the IC50 came to 1.2 µM.

On to `CC(=O)N1CCC2C1CCN2C1CCCC(NC(=O)c2cc3c(F)ccc(C)c3[nH]2)C1` (stereo not shown) [compound 1184], for which the IC50 turned out to be 0.005 µM.

On to `CC(=O)N1CCC2CN(C3CCCC(NC(=O)c4cc5c(F)ccc(C)c5[nH]4)C3)CC21` (stereo not shown) [compound 1181], for which the IC50 was more than 2 µM.

Take `Cc1cccnc1[C@@H](NC(=O)c1cc2cccc(C)c2[nH]1)C1CC1` [compound 613]: the IC50 was more than 25 µM.

`Cc1ccc(F)c2cc(C(=O)NC3CCCC(N4CCN5C(=O)CCC5C4)C3)[nH]c12` (stereo not shown) [compound 920]: the IC50 was 0.1 µM.

Staying with this experiment, now noted: Homo sapiens, A549, read-out: SETD2 A549.
With `Cc1ccc(F)c2cc(C(=O)N[C@H]3CCC[C@@H](c4ccncc4)C3)[nH]c12` [compound 914], the IC50 worked out at 0.3 µM.

For `Cc1ccc(F)c2cc(C(=O)N[C@@H]3CCC[C@H](c4ccncc4)C3)[nH]c12` [compound 913], the IC50 was more than 2 µM.

For the compound `Cc1cccnc1[C@H](NC(=O)c1cc2cccc(C)c2[nH]1)C1CC1` [compound 463], the IC50 was determined as 6.4 µM.

In the case of `Cc1ccc(F)c2cc(C(=O)N[C@@H]3CCC[C@H](N4CCN(C)C(=O)C4)C3)[nH]c12` [compound 169], the IC50 is 0.3 µM.

Turning to `Cc1ccc(F)c2cc(C(=O)N[C@@H]3CCC[C@@H](c4ccncc4)C3)[nH]c12` [compound 912], the IC50 is more than 2 µM.

Regarding `Cc1cccc2cc(C(=O)N[C@H]3CC[C@@H](NC(=O)CCN)CC3)[nH]c12` [compound 592], the IC50 is more than 25 µM.

In the case of `Cc1ccc(F)c2cc(C(=O)N[C@H]3CCC[C@H](c4ccncc4)C3)[nH]c12` [compound 915], the IC50 was more than 2 µM.

With `Cc1cccc2cc(C(=O)Nc3ccccc3)[nH]c12` [compound 479], the IC50 stood at 9.5 µM.

As for `CC(=O)N(C)[C@H]1CCN([C@@H]2CCC[C@@H](NC(=O)c3cc4c(F)ccc(C)c4[nH]3)C2)C1` [compound 842], the IC50 is more than 2 µM.
